From patent US20040082623A1, “Fmoc-l-leucine and derivatives thereof as ppar-gamma agonists” (priority 2003, published 2004)

Molecular target: T1, PPARγ2 (Homo sapiens, UniProt P37231)
T1 sequence (P37231 1-505): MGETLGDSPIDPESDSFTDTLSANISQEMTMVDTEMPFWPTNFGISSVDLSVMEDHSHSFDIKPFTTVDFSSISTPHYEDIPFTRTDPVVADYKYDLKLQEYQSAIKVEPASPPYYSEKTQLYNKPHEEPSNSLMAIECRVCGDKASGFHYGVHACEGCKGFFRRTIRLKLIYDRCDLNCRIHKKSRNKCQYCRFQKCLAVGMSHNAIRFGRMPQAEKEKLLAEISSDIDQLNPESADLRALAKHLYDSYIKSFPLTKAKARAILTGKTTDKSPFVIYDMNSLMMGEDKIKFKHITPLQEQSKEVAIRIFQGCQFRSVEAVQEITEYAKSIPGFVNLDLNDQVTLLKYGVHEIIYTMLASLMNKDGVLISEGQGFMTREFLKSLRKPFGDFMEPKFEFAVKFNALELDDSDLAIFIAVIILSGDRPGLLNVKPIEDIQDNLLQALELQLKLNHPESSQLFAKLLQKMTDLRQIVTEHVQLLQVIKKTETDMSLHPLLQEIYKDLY
Experiment: Transient transfection, PPARγ2 reporter in RK13 cells
Type: cell-based
Parameters: a construct containing the entire cDNA of the human PPARγ2 (hPPARγ2); expressed in transfected cells; host or cells: Hep G2, RK13 or CV1 cells
Description: RK13 cells (A and D), CV1 cells (B) or Hep G2 cells (C) were co-transfected with an expression vector for PPARγ2 (0.1 μg/well), pGL3-(Jwt)3TKLuc reported construct (0.5 μg/well), and pCMV-βGal (0.5 μg/well), as a control of transfection efficiency (0.5 μg/well). They were then grown during 24 h in the presence or absence of indicated compound. Activation is expressed as relative luciferase activity/β ? galactosidase activity. Each point was performed in triplicate, and each figure i ? representative of four independent experiments.
The CV1, RK-13, and Hep G2 cell lines were obtained from ATCC (Rockville, Md.). Cells were maintained in Dulbecco's modified Eagle's minimal essential medium (DMEM) supplemented with 10% fetal calf serum (FCS), L-glutamine, and antibiotics. Transfections with chloramphenicol acetyltransferase (CAT) or luciferase (luc.) reporter constructs were carried out exactly as described previously (Schoonjans et al., 1996). The pGL3-(Jwt)3TKLuc and the pGL3-(Jwt)3TKCAT reporter constructs contain both three tandem repeats of the J site of the apolipoprotein A-II promoter cloned upstream of the herpes simplex virus thymidine kinase (TK) promoter and the luciferase or the CAT reporter genes respectively (Vu-Dac et al., 1995). The following expression vectors were used; pSG5-hPPARγ2, a construct containing the entire cDNA of the human PPARγ2 (hPPARγ2) (Fajas et al., 1997); pSG5-mPPARα (Isseman et al., 1993); and pCMV-βGal, as a control of transfection efficiency.

## CC(C)CC(NC(=O)OCC1c2ccccc2-c2ccccc21)C(=O)O [F-L-Leu, N-(9-fluroroenylmethyloxycarbonyl)-L-Leucine]
RK13 cells
  concentration giving maximal PPARγ activation: 10^−5 M
RK13 cells, 10^−5 M added
  modification of PPARγ activity when added to a saturating concentration of rosiglitazone: No significant modification
Rabbit kidney RK13 cells
  concentration of optimal PPARγ activity / activation: 10^−5 M
